US20200214998A1, “Method for Treating a Brain Cancer” (Allianz Pharmascience Ltd., priority 2019, published 2020)

Test system: U87MG-R
Experiment: Orthotopic TMZ-resistant GBM mouse model, intracranial U87MG-R
Conditions: TMZ (15 mg/kg oral) plus vehicle; untreated control 21 days
Method: Animal survival was evaluated from the first day of treatment until death.
TMZ-resistant GBM inoculated orthotopic mice were randomly grouped and treated with TMZ or TMZ plus JM17.
Briefly, a skull burr hole was first created in the right frontal brain area. An ultra-fine needle was then inserted to a depth of 3 mm using stereostatic guiding, and 5×10^5 TMZ-resistant cells were injected.
Twenty-eight-week-old nude mice received U87MG-R transplantation. Five days later, these animals were randomized into four treatment groups (7 animals per group), which received TMZ (15 mg/kg) by oral gavage and JM17 by the intravenous injection three times per week (Day 1, 3, 5 of the week) as follows: Control (untreated), TMZ plus vehicle, TMZ plus JM17 (5 mg/kg) and TMZ plus JM17 (20 mg/kg) (FIG. 5).

## Cn1nnc2c(C(N)=O)ncn2c1=O [TMZ, temozolomide]
  median survival: 20 days
